Measured values as given in paper PMC3974779, “Pterostilbene-Isothiocyanate Conjugate Suppresses Growth of Prostate Cancer Cells Irrespective of Androgen Receptor Status” (PLoS ONE, 2014).
Positions count from the first letter of the chain named.

How the values were obtained:
hAR in PC-3 cells = target: T1, hAR in PC-3 cells (Homo sapiens, UniProt P10275); experiment: AR transactivation luciferase assay (pSG5-hAR + pMMTV-luc); format: cell-based; settings: 10 nM DHT
T1 construct: full length hAR in pSG5 expression vector; expressed in transfected cells; host or cells: PC-3 (AR-negative)
T1 sequence (P10275 1-920): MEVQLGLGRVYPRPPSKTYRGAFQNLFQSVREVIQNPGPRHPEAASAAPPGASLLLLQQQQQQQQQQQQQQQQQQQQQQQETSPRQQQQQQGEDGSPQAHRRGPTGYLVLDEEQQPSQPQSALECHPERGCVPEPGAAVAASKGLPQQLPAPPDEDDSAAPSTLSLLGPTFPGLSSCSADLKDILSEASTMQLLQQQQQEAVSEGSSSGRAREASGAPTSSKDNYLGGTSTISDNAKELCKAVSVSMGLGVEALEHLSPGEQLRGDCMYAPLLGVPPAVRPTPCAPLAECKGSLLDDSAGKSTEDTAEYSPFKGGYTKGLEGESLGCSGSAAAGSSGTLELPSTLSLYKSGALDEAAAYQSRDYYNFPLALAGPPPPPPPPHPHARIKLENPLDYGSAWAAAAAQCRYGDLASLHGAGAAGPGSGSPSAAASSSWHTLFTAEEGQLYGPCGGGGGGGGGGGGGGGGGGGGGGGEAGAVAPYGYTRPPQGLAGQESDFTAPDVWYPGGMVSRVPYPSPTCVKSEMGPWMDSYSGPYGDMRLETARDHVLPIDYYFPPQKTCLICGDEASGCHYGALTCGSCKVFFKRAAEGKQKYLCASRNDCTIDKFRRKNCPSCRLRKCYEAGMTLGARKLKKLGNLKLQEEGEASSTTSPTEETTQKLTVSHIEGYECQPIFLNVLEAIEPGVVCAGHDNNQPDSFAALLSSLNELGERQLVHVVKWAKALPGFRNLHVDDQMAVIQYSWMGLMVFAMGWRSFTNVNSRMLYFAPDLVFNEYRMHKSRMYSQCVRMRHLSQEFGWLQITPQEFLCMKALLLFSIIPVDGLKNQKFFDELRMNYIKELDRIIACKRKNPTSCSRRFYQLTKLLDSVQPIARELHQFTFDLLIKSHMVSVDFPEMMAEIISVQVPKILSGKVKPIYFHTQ
Method: (§1) The LNCaP cells were grown and transiently transfected with pMMTV-neomycin-luciferase plasmid (300 ng/10^5 cells) in RPMI media supplemented with 10% FBS using polyfect transfection reagent (Qiagen, CA, USA) according to manufacturer’s instructions. Then, 24 h after transfection, the cell culture media were changed with media containing 5% charcoal-stripped FBS to reduce the contaminating steroids from the serum and incubated for an additional day before initiating the treatments. In case of PC-3 cells, they were similarly transfected, but in addition to pMMTV-neomycin-luciferase construct, they were also transfected with pSG5-hAR-puro plasmid (full length hAR in pSG5 expression vector) in the ratio of 5∶1 as indicated above. For experiments involving co-regulators, 50 ng of co-activator plasmids (25 ng each of GRIP-1 and SRC-1) along with pMMTV-neo-luc (250 ng) were transfected to LNCaP cells. To evaluate the transfection efficiency, 500 ng/105 cells of the SV40 promoter-Renilla luciferase (pRL-SV40) vector (Promega Madison, USA) were co-transfected as internal control. […] Each experimental point was performed in triplicate and varied by less than 10%. The values of luciferase for each lysates were normalized to the Renilla luciferase activity.

[1] = target: T2, androgen receptor in LNCaP cells (Homo sapiens, UniProt P10275, T878A); experiment: AR transactivation luciferase assay (pMMTV-luc); format: cell-based
T2 construct: LNCaP cells, that express endogenous AR; endogenous in cells; host or cells: LNCaP
T2 sequence (P10275 1-920 T878A): T1 sequence (P10275 1-920) with T878A
Method: as §1

COc1cc(/C=C/c2ccc(O)c(/C=N/NC(N)=S)c2)cc(OC)c1 [conjugate, Pterostilbene-isothiocyanate conjugate]
reduction of DHT-mediated luciferase activity (hAR in PC-3 cells; PC-3, 5 μM): 19%
reduction of DHT-mediated luciferase activity (hAR in PC-3 cells; PC-3, 10 μM): 31%
reduction of DHT-mediated luciferase activity (hAR in PC-3 cells; PC-3, 20 μM): 63%
reduction of DHT-mediated luciferase activity (hAR in PC-3 cells; PC-3, 30 μM): 70%
reduction of DHT-mediated luciferase activity (hAR in PC-3 cells; PC-3, 40 μM): 80%
transcriptional activation by compound alone ([1]; 1–40 μM, without DHT): did not induce transcriptional activation
inhibition at 40 µM ([1]; read-out: inhibition of androgen-induced transactivation): ~73%
